Assay results from PMC2848619, “The Combinatorial PP1-Binding Consensus Motif (R/K)x (0,1)V/IxFxx(R/K)x(R/K) Is a New Apoptotic Signature” (PLoS ONE, 2010).
One block for each compound: values may come before it. Where a SMILES comes first, the peptide text is derived from it. Where no end group is shown, it is not given here. The star is where a group is joined. Biotin = O=C1N[C@H]2[C@H](CS[C@H]2CCCCC(=O)*)N1

Legend:
[1] = test system: HeLa cells; experiment: Quantification of peptide internalization: intracellular delivery of streptavidin-peroxidase (OPD); assay type: cell-based, human; conditions: 6 hrs at 37°C, compared with TAT peptide
Protocol: Before incubation, the peptides were preincubated for 1 h with streptavidin HRP conjugate in a 4/1 ratio. Cells at 80% confluence were incubated with different concentrations of peptide in 24-well plates. After 6 h, cells were washed twice in PBS, trypsinized (Trypsin EDTA, Invitrogen) and harvested in 1 ml of PBS and counted. Cells were lysed in 300 µl of 0.1 M Tris pH 7.4, and 0.5% Nonidet P-40 buffer for 10 min on ice. A total of 50 µl of cell lysate was mixed with 50 µl of OPD buffer (51.4 mM Na2HPO4 and 24.3 mM citric acid) then mixed with 100 µl of OPD solution (one OPD tablet from Sigma (St. Louis MO) in 100 ml of OPD buffer to which 40 µl of 30% hydrogen peroxide was added just before use). After 10 to 20 min, the reaction was stopped by adding 100 µl of 1 M HCl, and optical density was read at 490 nm.

[2] = test system: PP1c; experiment: PP1c binding of DPT-APAF peptides (abstract only); conditions: stated in abstract only
[3] = Apoptotic effect of DPT-APAF peptides (abstract only); assay type: cell-based; conditions: stated in abstract only
[4] = test system: PP1c; experiment: Pull down assay of biotinylated peptides with PP1c from HeLa cell extracts; assay type: binding, human; conditions: peptide 100 µM on streptavidin magnetic beads, HeLa cell lysate, 2 h 4°C, western blot with PP1 antibodies
Protocol: Biotinylated peptides were pre-incubated for 2 h at 100 µM (final concentration with lysate) and room temperature with 30 µl of streptavidin-coated immunomagnetic beads (Calbiochem, San Diego CA). During this time, 1×10^6 HeLa cells at 90% of confluence per test peptide were washed with PBS, trypsinized, harvested with PBS, washed with 1 ml of PBS, and centrifuged at 600 g and 4°C for 10 min. Cell pellets were lysed 10 min on ice with 400 µl of lysis buffer (50 mM Tris pH 7.4, 200 mM NaCl, 10 mM EDTA, 20% Glycerol, 1% Nonidet P-40, 1 mM phenylmethylsulfonyl fluoride (PMSF), 10 mM NaF, 1 mM orthovanadate, and “complete mini EDTA free” protease inhibitor cocktail from Roche). Lysates were clarified at 13,000 g for 10 min at 4°C and after rotation with supernatant at 4°C for 2 h, biotinylated peptides were pulled down with streptavidine magnetic beads and washed twice with 750 µl of lysis buffer. Bound proteins and clarified lysates were analyzed by western blotting using PP1 antibodies.

Ability to internalize Streptavidin-HRP conjugated molecules (in words) [1]: not DPT-AIF2
Compound: CC[C@H](C)[C@H](NC(=O)[C@@H](NC(=O)CNC(=O)[C@H](CCCCN)NC(=O)CCCC[C@@H]1SC[C@@H]2NC(=O)N[C@@H]21)C(C)C)C(=O)N[C@@H](C)C(=O)N[C@@H](Cc1ccc(O)cc1)C(=O)N[C@@H](CC(C)C)C(=O)N[C@@H](CCCNC(=N)N)C(=O)N[C@@H](CC(=O)O)C(=O)N[C@@H](CCCCN)C(=O)O [DPT-AIF2] (Biotin-KGVIAYLRDK-OH)

Compound: CC[C@H](C)[C@H](NC(=O)[C@@H](NC(=O)CNC(=O)[C@H](CCCCN)NC(=O)CCCC[C@@H]1SC[C@@H]2NC(=O)N[C@@H]21)C(C)C)C(=O)N[C@@H](Cc1ccccc1)C(=O)N[C@@H](Cc1ccc(O)cc1)C(=O)N[C@@H](CC(C)C)C(=O)N[C@@H](CCCNC(=N)N)C(=O)N[C@@H](CC(=O)O)C(=O)N[C@@H](CCCCN)C(=O)O [DPT-AIF1] (Biotin-KGVIFYLRDK-OH)
Ability to internalize Streptavidin-HRP conjugated molecules (in words) [1]: able to internalize Streptavidin-HRP conjugated molecules even more efficiently than the well characterized positive control TAT peptide

PP1c binding [2]: PP1-interacting
Compound: DPT-APAF1: bi-partite cell penetrating peptide containing APAF-1_122–131 linked to DPT-sh1 peptide shuttle (RPVVFVTRKK; also: linked to DPT-sh1 shuttle peptide, junction not given here; UniProt O14727 122-131, looked up, fragment)
Apoptotic effect [3]: death molecule

Compound: DPT-AIF4: mutated peptide of 8 accessible residues of AIF564–571 containing the F566A mutation (Biotin-VIAYLRDK)
Co-precipitation of PP1c with biotinylated peptide [4]: unable to co-precipitate PP1c
